We go through 19 compounds from US9845310B2 (priority 2015, dated 2017).

Where two headings read alike, the source gives them in different places.

One experiment concerns the target APJ (Homo sapiens (Human), UniProt P35414). Description: [35S]GTPγS binding assay on membranes from CHO cells stably expressing human APJ receptor. It is filed as biochemical.
Experiment [1] has as its system naive Sprague Dawley rat hearts. As to conditions: ex vivo isolated perfused rat heart, percent change over vehicle; for Isolated Heart Assay dP/dtmax(%): contractility; for Isolated Heart Assay dP/dtmin(%): relaxation (lusitropic).
Setting [2] is: read-out: Activity hAPJ SPA EC50 IP.

Sequence of APJ (P35414 whole entry, the tested form may be a part): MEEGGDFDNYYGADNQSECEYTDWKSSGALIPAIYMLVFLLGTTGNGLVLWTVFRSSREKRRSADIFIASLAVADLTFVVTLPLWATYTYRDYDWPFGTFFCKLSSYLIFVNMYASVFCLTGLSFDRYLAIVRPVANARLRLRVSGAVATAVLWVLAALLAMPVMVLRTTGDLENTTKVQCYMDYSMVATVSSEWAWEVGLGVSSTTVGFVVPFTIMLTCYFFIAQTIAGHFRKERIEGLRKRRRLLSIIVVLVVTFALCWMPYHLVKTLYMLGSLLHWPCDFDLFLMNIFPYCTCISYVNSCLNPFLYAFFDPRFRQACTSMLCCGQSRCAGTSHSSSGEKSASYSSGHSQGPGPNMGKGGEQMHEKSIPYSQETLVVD
Protocol for APJ: A GTPγS binding assay was performed on membranes prepared from CHO cells stably expressing human APJ receptor. The optimum experimental conditions for the concentrations of GDP, MgCl2, and NaCl in the assay buffer were initially determined. The assay was performed in assay buffer [20 mM HEPES, pH 7.5, 5 mM MgCl2, and 0.1% (w/v) BSA with 200 mM NaCl, 3 M GDP] and membranes expressing human APJ receptor/well along with WGA PS beads. The reaction was initiated by addition of 0.2 nM [^35S]GTPγS (Perkin Elmer Life and Analytical Sciences, Waltham USA) in the absence or presence of various ligands and incubated at RT for 90 min. Nonspecific binding was determined in the presence of 100 M GTPγS and was always less than 0.2% of total binding.

With `COc1cccc(-c2nnc(NS(=O)(=O)[C@@H](C)[C@H](C)c3ncc(F)cn3)n2-c2cn(C)c3ccccc23)n1` (racemic) [Example 451.0, (2S,3R)-3-(5-fluoro-2-pyrimidinyl)-N-(5-(6-methoxy-2-pyridinyl)-4-(1-methyl-1H-indol-3-yl)-4H-1,2,4-triazol-3-yl)-2-butanesulfonamide and (2R,3S)-3-(5-fluoro-2-pyrimidinyl)-N-(5-(6-methoxy-2-pyridinyl)-4-(1-methyl-1H-indol-3-yl)-4H-1,2,4-triazol-3-yl)-2-butanesulfonamide], at APJ (Activity hAPJ SPA EC50 IP (μM)), the response was half-maximal at 0.045 µM (EC50).

With `COCCO[C@H](c1ncc(C)cn1)[C@H](C)S(=O)(=O)Nc1nnc(-c2cccc(OC)n2)n1-c1c(OC)cccc1OC` [Example 695.0, (1R,2S)-N-(4-(2,6-dimethoxyphenyl)-5-(6-methoxypyridin-2-yl)-4H-1,2,4-triazol-3-yl)-1-(2-methoxyethoxy)-1-(5-methylpyrimidin-2-yl)propane-2-sulfonamide], the midpoint of the response on APJ (Activity hAPJ SPA EC50 IP (μM)), the EC50, lay at 0.00012 µM.

With `COc1cccc(-c2nnc(NS(=O)(=O)[C@H](C)[C@@H](O)c3cc(C)n(C)n3)n2-c2c(OC)cccc2OC)n1` (racemic) [Example 260.0, (1S,2R)-N-(4-(2,6-dimethoxyphenyl)-5-(6-methoxypyridin-2-yl)-4H-1,2,4-triazol-3-yl)-1-(1,5-dimethyl-1H-pyrazol-3-yl)-1-hydroxypropane-2-sulfonamide and (1R,2S)-N-(4-(2,6-dimethoxyphenyl)-5-(6-methoxypyridin-2-yl)-4H-1,2,4-triazol-3-yl)-1-(1,5-dimethyl-1H-pyrazol-3-yl)-1-hydroxypropane-2-sulfonamide], the EC50 (as a rule, the concentration giving half of the maximal effect) at APJ (Activity hAPJ SPA EC50 IP (μM)) came to 0.0024 µM.

Take `COc1cccc(OC)c1-n1c(NS(=O)(=O)[C@@H]2CCCO[C@@H]2c2ncc(C)cn2)nnc1-c1cncc(C)c1` (single isomer, unassigned) [Example 643.0]: the half-maximal effective concentration (EC50) at APJ (setting [2]) was 0.15 µM.

As to `COc1ccc(Cl)c(OC)c1-n1c(-c2cncc(C)c2)nnc1S(=O)(=O)NCCc1ccc(Cl)cc1` [Example 373.0, 4-(3-chloro-2,6-dimethoxyphenyl)-N-(2-(4-chlorophenyl)ethyl)-5-(5-methyl-3-pyridinyl)-4H-1,2,4-triazole-3-sulfonamide], a half-maximal response on APJ (Activity hAPJ SPA EC50 IP (μM)) (EC50) required 0.31 µM.

As for `COc1cccc(-c2nnc(NS(=O)(=O)C[C@@H](O)c3cn4ccccc4n3)n2-c2c(OC)cccc2OC)n1` (mixture of isomers) [Example 257.0, (S)-N-(4-(2,6-dimethoxyphenyl)-5-(6-methoxypyridin-2-yl)-4H-1,2,4-triazol-3-yl)-2-hydroxy-2-(imidazo[1,2-a]pyridin-2-yl)ethanesulfonamide and (R)-N-(4-(2,6-dimethoxyphenyl)-5-(6-methoxypyridin-2-yl)-4H-1,2,4-triazol-3-yl)-2-hydroxy-2-(imidazo[1,2-a]pyridin-2-yl)ethanesulfonamide], the EC50 at APJ (setting [2]) came to 0.00073 µM.

At APJ (Activity hAPJ SPA EC50 IP (μM)), `COc1cnc([C@@H](C)[C@H](C)S(=O)(=O)Nc2nnc(-c3cccc(OC)n3)n2-c2c(F)cccc2F)cn1` [Example 787.0, (2S,3R)-N-(4-(2,6-difluorophenyl)-5-(6-methoxy-2-pyridinyl)-4H-1,2,4-triazol-3-yl)-3-(5-methoxy-2-pyrazinyl)-2-butanesulfonamide] gave an EC50 of 0.00053 µM.

As for `COc1cccc(OC)c1-n1c(NS(=O)(=O)[C@@H](C)[C@H](OC)c2ncc(C)o2)nnc1-c1cncc(C)c1` (single isomer, unassigned) [Example 632.0, (1S,2R)-N-(4-(2,6-dimethoxyphenyl)-5-(5-methylpyridin-3-yl)-4H-1,2,4-triazol-3-yl)-1-methoxy-1-(5-methyloxazol-2-yl)propane-2-sulfonamide or (1R,2S)-N-(4-(2,6-dimethoxyphenyl)-5-(5-methylpyridin-3-yl)-4H-1,2,4-triazol-3-yl)-1-methoxy-1-(5-methyloxazol-2-yl)propane-2-sulfonamide], the EC50 at APJ (setting [2]) worked out at 0.21 µM.

With `COc1cccc(OC)c1-n1c(NS(=O)(=O)[C@H](C)[C@@H](OC(C)C)c2ncc(C)cn2)nnc1-c1cccnc1` (stereo in doubt) [Example 624.0, (1S,2R)-N-(4-(2,6-dimethoxyphenyl)-5-(3-pyridinyl)-4H-1,2,4-triazol-3-yl)-1-(1-methylethoxy)-1-(5-methyl-2-pyrimidinyl)-2-propanesulfonamide, (1R,2S)-N-(4-(2,6-dimethoxyphenyl)-5-(3-pyridinyl)-4H-1,2,4-triazol-3-yl)-1-(1-methylethoxy)-1-(5-methyl-2-pyrimidinyl)-2-propanesulfonamide], the EC50 on APJ (setting [2]) stood at 0.16 µM.

At APJ (Activity hAPJ SPA EC50 IP (μM)), `COc1cccc(-c2nnc(NS(=O)(=O)[C@H](C)[C@@H](O)C3CC3)n2-c2c(OC)cccc2OC)n1` (mixture of isomers) [Example 438.0] yielded an EC50 of 0.052 µM.

At APJ (Activity hAPJ SPA EC50 IP (μM)), `COc1cccc(-c2nnc(NS(=O)(=O)[C@@H](C)[C@H](O)c3ccc(F)cc3S(C)(=O)=O)n2-c2c(OC)cccc2OC)n1` [Example 288.0] gave an EC50 of 0.0011 µM.

For `COc1cccc(OC)c1-n1c(NS(=O)(=O)[C@H](C)[C@H](OC(C)C)c2cnc(C)cn2)nnc1-c1cccc(C)n1` (single isomer, unassigned) [Example 824.0, (1S,2S)-N-(4-(2,6-dimethoxyphenyl)-5-(6-methylpyridin-2-yl)-4H-1,2,4-triazol-3-yl)-1-isopropoxy-1-(5-methylpyrazin-2-yl)propane-2-sulfonamide or (1R,2R)-N-(4-(2,6-dimethoxyphenyl)-5-(6-methylpyridin-2-yl)-4H-1,2,4-triazol-3-yl)-1-isopropoxy-1-(5-methylpyrazin-2-yl)propane-2-sulfonamide], the EC50 at APJ (Activity hAPJ SPA EC50 IP (μM)) stood at 0.00047 µM.

Consider `COc1cccc(-c2nnc(NS(=O)(=O)[C@H](C)[C@@H](O)c3cn4ccccc4n3)n2-c2c(OC)cccc2OC)n1` (mixture of isomers) [Example 256.0, (1S,2R)-N-(4-(2,6-dimethoxyphenyl)-5-(6-methoxypyridin-2-yl)-4H-1,2,4-triazol-3-yl)-1-hydroxy-1-(imidazo[1,2-a]pyridin-2-yl)propane-2-sulfonamide and (1R,2S)-N-(4-(2,6-dimethoxyphenyl)-5-(6-methoxypyridin-2-yl)-4H-1,2,4-triazol-3-yl)-1-hydroxy-1-(imidazo[1,2-a]pyridin-2-yl)propane-2-sulfonamide], for which the EC50 on APJ (setting [2]) worked out at 0.0004 µM.

For the compound `COc1cccc(OC)c1-n1c(NS(=O)(=O)[C@@H](C)[C@@H](OC(C)C)c2ncc(C)cn2)nnc1-c1cccnc1` (stereo in doubt) [Example 627.0, (1R,2R)-N-(4-(2,6-dimethoxyphenyl)-5-(3-pyridinyl)-4H-1,2,4-triazol-3-yl)-1-(1-methylethoxy)-1-(5-methyl-2-pyrimidinyl)-2-propanesulfonamide, (1S,2S)-N-(4-(2,6-dimethoxyphenyl)-5-(3-pyridinyl)-4H-1,2,4-triazol-3-yl)-1-(1-methylethoxy)-1-(5-methyl-2-pyrimidinyl)-2-propanesulfonamide], in experiment [1], the “Isolated Heart Assay dP/dtmax(%)” value is reported as “No effect” and the “Isolated Heart Assay dP/dtmin(%)” value is “No effect”.

As to `Cc1cnc([C@@H](C)[C@H](C)S(=O)(=O)Nc2nnc(-c3cncc(C)c3)n2-c2c(F)cccc2F)nc1` (single isomer, unassigned) [Example 826.0, (2S,3R)-N-(4-(2,6-difluorophenyl)-5-(5-methylpyridin-3-yl)-4H-1,2,4-triazol-3-yl)-3-(5-methylpyrimidin-2-yl)butane-2-sulfonamide or (2R,3S)-N-(4-(2,6-difluorophenyl)-5-(5-methylpyridin-3-yl)-4H-1,2,4-triazol-3-yl)-3-(5-methylpyrimidin-2-yl)butane-2-sulfonamide], in experiment [1], the “Isolated Heart Assay dP/dtmax(%)” value stood at 6.02% and the “Isolated Heart Assay dP/dtmin(%)” value was 5.16%.

On to `COc1cccc(-c2nnc(NS(=O)(=O)[C@@H](C)[C@H](C)c3cnc(C)cn3)n2-c2c(OC)ncnc2OC)n1` [Example 799.0, (2S,3R)-N-(4-(4,6-dimethoxy-5-pyrimidinyl)-5-(6-methoxy-2-pyridinyl)-4H-1,2,4-triazol-3-yl)-3-(5-methyl-2-pyrazinyl)-2-butanesulfonamide], for which, in experiment [1], the “Isolated Heart Assay dP/dtmax(%)” value was found to be 7.8% and the “Isolated Heart Assay dP/dtmin(%)” value came out at 14.1%.

Take `COc1cccc(OC)c1-n1c(NS(=O)(=O)[C@H](C)[C@@H](OC)c2ccc(Cl)cn2)nnc1-c1cccnc1` (single isomer, unassigned) [Example 531.0, (1S,2R)-1-(5-chloro-2-pyridinyl)-N-(4-(2,6-dimethoxyphenyl)-5-(3-pyridinyl)-4H-1,2,4-triazol-3-yl)-1-methoxy-2-propanesulfonamide or (1R,2S)-1-(5-chloro-2-pyridinyl)-N-(4-(2,6-dimethoxyphenyl)-5-(3-pyridinyl)-4H-1,2,4-triazol-3-yl)-1-methoxy-2-propanesulfonamide]: in experiment [1], the “Isolated Heart Assay dP/dtmax(%)” value worked out at 4.1% and the “Isolated Heart Assay dP/dtmin(%)” value is reported as 1.9%.

Regarding `COc1cccc(OC)c1-n1c(NS(=O)(=O)[C@@H](C)[C@H](O)c2ncc(F)cn2)nnc1-c1cccnc1` [Example 82.0, (1R,2S)-N-(4-(2,6-dimethoxyphenyl)-5-(3-pyridinyl)-4H-1,2,4-triazol-3-yl)-1-(5-fluoro-2-pyrimidinyl)-1-hydroxy-2-propanesulfonamide], in experiment [1], the “Isolated Heart Assay dP/dtmax(%)” value worked out at 13.5% and the “Isolated Heart Assay dP/dtmin(%)” value was 16.2%.

`COc1cccc(OC)c1-n1c(NS(=O)(=O)CCc2ccc(F)cc2C#N)nnc1-c1cncc(C)c1` [Example 621.0, 2-(2-cyano-4-fluorophenyl)-N-(4-(2,6-dimethoxyphenyl)-5-(5-methyl-3-pyridinyl)-4H-1,2,4-triazol-3-yl)ethanesulfonamide]: in experiment [1], the “Isolated Heart Assay dP/dtmax(%)” value came to 7.4% and the “Isolated Heart Assay dP/dtmin(%)” value is recorded as 6.0%.
